Assay [1] deals with T1, Tdp1 (Homo sapiens, UniProt Q9NUW8). Put plainly: Real-time detection of Tdp1 activity (oligonucleotide biosensor, FAM/BHQ1). Format: biochemical. More on the design: key to Eut/Dis: The stereoisomer with the greater inhibitory activity is termed the eutomer (Eut); that with the lower activity, the distomer (Dis). The note with it: for ER (eudismic ratio): IC50 (Eutomer)/IC50 (Distomer); for ER (eudismic ratio) / EI (eudismic index): per stereoisomer pair; for Eut/Dis: eutomer or distomer within the stereoisomer pair; for EI (eudismic index): −logER; for IC50: 1.5 nM Tdp1, 50 nM biosensor, 26 °C, three independent experiments. As for the experimental part:
The measurement of Tdp1 inhibition was performed using a real-time oligonucleotide biosensor based on the capability of Tdp1 to remove fluorophore quenchers from the 3′-end of DNA [31]. The single-stranded Tdp1 substrate was a 16-mer oligonucleotide containing a 5′-FAM (6-carboxyfluorescein) fluorophore donor and a 3′-BHQ1 quencher (black hole quencher 1). When a quencher is removed by Tdp1, FAM fluorescence flares up and can be detected by a fluorimeter. In the presence of an inhibitor, fluorescence intensity decreases. The obtained Tdp1 activity versus inhibitor concentration curves were used to calculate IC50 values. We also studied other structurally related compounds, such as optically active benzoylated arabinofuranose and ribofuranose to ascertain the influence of a heterocyclic base on biological activity (Table 1).
Real-time detection of Tdp1 activity was reported in our previous work. This approach involves measuring the fluorescence intensity during the reaction of quencher removal from a fluorophore-quencher coupled to a DNA-oligonucleotide catalyzed by Tdp1 in the presence of inhibitor (the control samples contained 1% DMSO). Reaction mixtures ([…]) contained Tdp1 buffer (50mM Tris-HCl, pH 8.0, 50mM NaCl, 7mM β-mercaptoethanol), 50 nM biosensor, testable inhibitor, and purified Tdp1 (1.5 nM). The biosensor was a single-stranded oligonucleotide (5′-[FAM] AAC GTC AGGGTC TTC C [BHQ]-3′) containing a fluorophore at the 5′-end (5,6-FAM) and black hole quencher 1 (BHQ) at the 3′-end that was synthesized in the Laboratory of nucleic acid chemistry at the Institute of Chemical Biology and Fundamental Medicine, Novosibirsk, Russia. The reactions were incubated at a constant temperature of 26 °C in a POLARstar OPTIMA fluorimeter (BMG LABTECH, GmbH, Soest, Germany) set to measure fluorescence every 55 s (Ex485/Em520 nm) during the linear phase (from 0 to 8 min). The values for half maximal inhibitory concentration (IC50) were determined using a six-point concentration response curve in three independent experiments and calculated using MARS Data Analysis 2.0 (BMG LABTECH, Soest, Germany).

The next assay concerns recombinant human Tdp1. Put plainly: Steady-state kinetic analysis of Tdp1 enzymatic reaction. Format: biochemical. The note with it: from dependence of Vmax and KM on inhibitor concentration. As for the experimental part: To confirm the interaction model obtained by molecular docking, the type of inhibition by compounds 3D, 3L, 7R, and 7S was determined by a steady-state kinetic assay. During the experiment, dependence curves of the enzymatic reaction rate (V) on substrate concentration (S) in the presence of different concentrations of the inhibitors were obtained (Figures S36–S39 in Supplementary Materials). The apparent Michaelis constant (KM) and the maximum reaction rate (Vmax) were calculated according to the Michaelis–Menten equation. Conclusions about the type of inhibition were made from the characteristics of the dependence of Vmax and KM on the concentration of the inhibitor.
To determine the apparent maximum rate of enzymatic reaction (Vmax), Michaelis constant (KM), and possible inhibition mechanism, steady-state kinetic experiments were carried out at five fixed concentrations for the substrate with various inhibitor concentrations. The standard reaction mixtures (200 μL) contained 50 nM, 100 nM, 200 nM, 500 nM, or 1000 nM substrate, testable inhibitor, 1.5 nM recombinant human Tdp1, and reaction buffer components (50 mM Tris-HCl, pH 8.0, 50 mM NaCl, 7 mM β-mercaptoethanol). After the addition of the enzyme, the reaction mixtures were incubated at a constant temperature of 26 °C and measured in a POLARstar OPTIMA fluorimeter (BMG LABTECH, GmbH) set to measure fluorescence every 55 s (Ex485/Em520 nm) during the linear phase (0 to 8 min). The initial data (kinetic curves) were obtained in three independent experiments and statistically processed with OriginPro 8.6.0 software.

For assay [2], the target named is T1, Tdp1. Briefly: Fluorescence anisotropy assay. The note with it: FAM-labeled DNA with Tdp1, increasing inhibitor concentration. The format is binding. From the text:
To clarify the mechanism of action of this compound, the change in the fluorescence anisotropy during the Tdp1 catalytic reaction was studied. This method is based on the ability of fluorescent molecules to be excited by plane-polarized light when their dipole moment is parallel to the plane of polarization. If such a molecule is unable to rotate in space, then the emitted light will be polarized following excitation. Conversely, if the molecule can rotate, then the emitted light is “depolarized”. The minimum anisotropy value corresponds to FAM-labeled DNA (Figure S40, gray graph). When Tdp1 was added, the anisotropy increased due to the binding of the DNA by the enzyme, which prevents its free rotation (Figure S40, red graph).
This means that the inhibitor can bind to the active site of Tdp1 instead of the DNA substrate, thereby reducing the activity of the enzyme by competitive inhibition. This is consistent with the data obtained in the kinetic studies. […] Thus, a competitive component is present when Tdp1 is inhibited by compound 7R; however, this process is more complicated and requires further study with other methods.
On the technique in general: Fluorescence polarisation rises when a labelled molecule tumbles more slowly, as on binding a larger partner.

16 molecules from article PMC9024977, “In Vitro and In Silico Studies of Human Tyrosyl-DNA Phosphodiesterase 1 (Tdp1) Inhibition by Stereoisomeric Forms of Lipophilic Nucleosides: The Role of Carbohydrate Stereochemistry in Ligand-Enzyme Interactions” (Molecules, 2022) can be followed below.

As usually defined, the IC50 is the midpoint of a concentration-inhibition curve.

T1 sequence (Q9NUW8 whole entry): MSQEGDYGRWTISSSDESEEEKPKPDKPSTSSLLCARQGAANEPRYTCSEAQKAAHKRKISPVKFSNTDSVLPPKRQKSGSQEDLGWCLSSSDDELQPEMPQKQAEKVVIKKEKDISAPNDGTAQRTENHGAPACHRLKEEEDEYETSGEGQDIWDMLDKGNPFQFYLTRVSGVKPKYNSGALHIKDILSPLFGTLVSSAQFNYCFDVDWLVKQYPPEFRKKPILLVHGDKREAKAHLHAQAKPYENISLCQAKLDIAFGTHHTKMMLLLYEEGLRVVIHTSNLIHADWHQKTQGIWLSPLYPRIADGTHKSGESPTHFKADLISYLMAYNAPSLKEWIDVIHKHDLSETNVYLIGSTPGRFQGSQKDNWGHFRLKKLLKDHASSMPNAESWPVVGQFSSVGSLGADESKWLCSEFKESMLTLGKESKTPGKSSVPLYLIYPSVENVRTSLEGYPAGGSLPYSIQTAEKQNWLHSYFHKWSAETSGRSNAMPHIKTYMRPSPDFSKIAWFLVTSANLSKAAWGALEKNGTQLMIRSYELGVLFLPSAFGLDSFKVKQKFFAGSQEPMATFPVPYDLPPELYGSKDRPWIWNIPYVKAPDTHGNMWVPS

For the molecule `CC(=O)O[C@@H]1O[C@H](COC(=O)c2ccccc2)[C@@H](OC(=O)c2ccccc2)[C@H]1OC(=O)c1ccccc1` [Compound 2D, 1-O-Acetyl-2,3,5-tri-O-benzoyl-β-D-ribofuranose], at Tdp1 [1], the “ER (eudismic ratio)” value is listed as 0.808, the Eut/Dis entry was “Eut” and the “EI (eudismic index)” value is 0.09.

Turning to `C[C@H](OC(=O)c1ccccc1)[C@H]1O[C@@H](n2cnc3c(NC(=O)c4ccccc4)ncnc32)[C@H](OC(=O)c2ccccc2)[C@@H]1OC(=O)c1ccccc1` [Compound 7S, 5′(S)-C-methyl-2′,3′,5′-tri-O-benzoyl-N^6-benzoyladenosine], on Tdp1 [1], half-maximal inhibition (IC50) required 4.6 ± 0.9 µM, the “ER (eudismic ratio)” value is listed as 0.956, the Eut/Dis result is “Dis” and the “EI (eudismic index)” value turned out to be 0.0193. Moreover, in the assay with recombinant human Tdp1, the type of inhibition entry is “competitive”. Also, the “change in fluorescence anisotropy” value at Tdp1 [2] was “decreased with an increasing concentration of the inhibitor”.

Regarding `C[C@H](OC(=O)c1ccccc1)[C@H]1O[C@@H](n2ccc(N)nc2=O)[C@H](OC(=O)c2ccccc2)[C@@H]1OC(=O)c1ccccc1` [Compound 6S, 1-[5(S)-C-methyl-2,3,5-tri-O-benzoyl-β-D-ribofuranosyl]cytosine], at Tdp1 [1], the half-maximal inhibitory concentration (IC50) came to 5.2 ± 0.8 µM, the “ER (eudismic ratio)” value was found to be 0.896, the Eut/Dis entry was “Eut” and the “EI (eudismic index)” value came out at 0.048.

Regarding `CC(=O)O[C@H]1O[C@@H](COC(=O)c2ccccc2)[C@H](OC(=O)c2ccccc2)[C@@H]1OC(=O)c1ccccc1` [Compound 2L], at Tdp1 [1], the IC50 amounted to 5.2 ± 0.2 µM, the “ER (eudismic ratio)” value was 0.808, the Eut/Dis result is “Dis” and the “EI (eudismic index)” value is recorded as 0.09.

Turning to `CO[C@@H]1O[C@@H](COC(=O)c2ccccc2)[C@H](OC(=O)c2ccccc2)[C@H]1OC(=O)c1ccccc1` [Compound 1L, 1-O-methyl-2,3,5-tri-O-benzoyl-α-L-arabinofuranose], on Tdp1 [1], the half-maximal inhibitory concentration (IC50) was found to be 6.7 ± 1.9 µM, the “ER (eudismic ratio)” value is recorded as 0.343, the Eut/Dis entry is listed as “Dis” and the “EI (eudismic index)” value was determined as 0.465.

Turning to `C[C@@H](OC(=O)c1ccccc1)[C@H]1O[C@@H](n2ccc(N)nc2=O)[C@H](OC(=O)c2ccccc2)[C@@H]1OC(=O)c1ccccc1` [Compound 6R, 1-[5(R)-C-methyl-2,3,5-tri-O-benzoyl-β-D-ribofuranosyl]cytosine], on Tdp1 [1], 5.8 ± 0.5 µM corresponded to half-maximal inhibition (IC50), the “ER (eudismic ratio)” value turned out to be 0.896, the Eut/Dis result is “Dis” and the “EI (eudismic index)” value is reported as 0.048.

For the molecule `Cc1cn([C@@H]2O[C@H](COC(=O)c3ccccc3)[C@@H](OC(=O)c3ccccc3)[C@H]2OC(=O)c2ccccc2)c(=O)[nH]c1=O` [Compound 4D, 1-(2,3,5-Tri-O-benzoyl-β-D-ribofuranosyl)thymine], on Tdp1 [1], the “ER (eudismic ratio)” value is given as 0.108, the Eut/Dis entry was “Eut” and the “EI (eudismic index)” value is 0.967.

The molecule `O=c1ccn([C@H]2O[C@@H](CO)[C@H](O)[C@@H]2O)c(=O)[nH]1` [Compound 8L] yielded an IC50 at Tdp1 [1] above 50 µM.

On to `C[C@@H](OC(=O)c1ccccc1)[C@H]1O[C@@H](n2c(=O)cc[nH]c2=O)[C@H](OC(=O)c2ccccc2)[C@@H]1OC(=O)c1ccccc1` [Compound 5R, 3-[5(R)-C-methyl-2,3,5-O-tribenzoyl-β-D-ribofuranosyl]uracil], for which, on Tdp1 [1], the half-inhibitory concentration (IC50) came out at 3.1 ± 0.2 µM, the “ER (eudismic ratio)” value was found to be 0.871, the Eut/Dis entry is reported as “Dis” and the “EI (eudismic index)” value worked out at 0.06.

With `Cc1cn([C@H]2O[C@@H](COC(=O)c3ccccc3)[C@H](OC(=O)c3ccccc3)[C@@H]2OC(=O)c2ccccc2)c(=O)[nH]c1=O` [Compound 4L, 2′,3′,5′-tri-O-benzoyl-L-ribothymidine], on Tdp1 [1], the midpoint of inhibition, the IC50, lay at 25 ± 1 µM; the “ER (eudismic ratio)” value is recorded as 0.108; the Eut/Dis entry is listed as “Dis”; the “EI (eudismic index)” value amounted to 0.967.

`O=c1ccn([C@@H]2O[C@H](CO)[C@@H](O)[C@H]2O)c(=O)[nH]1` [Compound 8D] yielded an IC50 against Tdp1 [1] above 50 µM.

On to `O=C(OC[C@@H]1O[C@H](n2ccc(=O)[nH]c2=O)[C@@H](OC(=O)c2ccccc2)[C@H]1OC(=O)c1ccccc1)c1ccccc1` [Compound 3L, 2′,3′,5′-tri-O-benzoyl-L-uridine], for which, on Tdp1 [1], the IC50 came to 5.1 ± 0.1 µM, the “ER (eudismic ratio)” value turned out to be 0.745, the Eut/Dis entry is “Dis” and the “EI (eudismic index)” value is listed as 0.128. Further, in the assay on recombinant human Tdp1, the type of inhibition result is on record as “uncompetitive”.

For the molecule `C[C@H](OC(=O)c1ccccc1)[C@H]1O[C@@H](n2c(=O)cc[nH]c2=O)[C@H](OC(=O)c2ccccc2)[C@@H]1OC(=O)c1ccccc1` [Compound 5S, 3-[5(S)-C-methyl-2,3,5-tri-O-benzoyl-β-D-ribofuranosyl]uracil], on Tdp1 [1], the IC50 turned out to be 2.7 ± 0.2 µM, the “ER (eudismic ratio)” value amounted to 0.871, the Eut/Dis result is “Eut” and the “EI (eudismic index)” value came out at 0.06.

For `C[C@@H](OC(=O)c1ccccc1)[C@H]1O[C@@H](n2cnc3c(NC(=O)c4ccccc4)ncnc32)[C@H](OC(=O)c2ccccc2)[C@@H]1OC(=O)c1ccccc1` [Compound 7R, 5′(R)-C-methyl-2′,3′,5′-tri-O-benzoyl-N^6-benzoyladenosine], on Tdp1 [1], the 50% inhibitory concentration (IC50) was determined as 4.4 ± 0.8 µM, the “ER (eudismic ratio)” value is on record as 0.956, the Eut/Dis entry is “Eut” and the “EI (eudismic index)” value is 0.0193. The type of inhibition result with recombinant human Tdp1 was “uncompetitive at low inhibitor concentrations and mixed at high”.

`CO[C@H]1O[C@H](COC(=O)c2ccccc2)[C@@H](OC(=O)c2ccccc2)[C@@H]1OC(=O)c1ccccc1` [Compound 1D, 1-O-methyl-2,3,5-tri-O-benzoyl-α-D-arabinofuranose]: on Tdp1 [1], the midpoint of inhibition, the IC50, lay at 2.3 ± 0.6 µM; the “ER (eudismic ratio)” value worked out at 0.343; the Eut/Dis result was “Eut”; the “EI (eudismic index)” value is 0.465.

For `O=C(OC[C@H]1O[C@@H](n2ccc(=O)[nH]c2=O)[C@H](OC(=O)c2ccccc2)[C@@H]1OC(=O)c1ccccc1)c1ccccc1` [Compound 3D, 2′,3′,5′-tri-O-benzoyl-D-uridine], at Tdp1 [1], the IC50 was 3.8 ± 0.4 µM, the “ER (eudismic ratio)” value is reported as 0.745, the Eut/Dis result is given as “Eut” and the “EI (eudismic index)” value was found to be 0.128. In addition, the type of inhibition entry in the assay on recombinant human Tdp1 is “uncompetitive”.
